Data taken from ChEMBL document CHEMBL1944623, “Synthesis, characterization and antiamoebic activity of some hydrazone and azole derivatives bearing pyridyl moiety as a promising heterocyclic scaffold” (Eur J Med Chem, 2012).

Legend:
[1] = tested on: Entamoeba histolytica; experiment: Antiameobic activity against Entamoeba histolytica HM-1:IMSS after 72 hrs using trypan blue staining method; type: functional, organism-based
[2] = tested on: MCF7; experiment: Cytotoxicity against human MCF7 cells assessed as cell viability after 48 hrs by MTT assay; type: cell-based; details: MCF7, 48 h

Compound: S=c1[nH]nc(-c2ccncc2)o1
- Activity [1]: Dose-dependent effect
- IC50 [1]: 0.558 µM
- IC50 [2]: > 250 µM

Compound: Cc1ncc([N+](=O)[O-])n1CCO [METRONIDAZOLE]
- IC50 [2]: > 250 µM

Compound: Cc1ccc(/C=N/NC(=O)c2ccncc2)cc1 [N'-(4-METHYLBENZYLIDENE)ISONICOTINOHYDRAZIDE]
- Activity [1]: Dose-dependent effect
- IC50 [1]: 0.13 µM
- IC50 [2]: > 250 µM

Compound: O=C(N/N=C/c1cccc(Cl)c1)c1ccncc1 [N'-(3-CHLOROBENZYLIDENE)ISONICOTINOHYDRAZIDE]
- IC50 [1]: 12.1 µM

Compound: O=C(N/N=C/c1ccccc1O)c1ccncc1 [SALINAZID]
- IC50 [1]: 4.14 µM

Compound: CC(C)c1ccc(/C=N/NC(=O)c2ccncc2)cc1
- IC50 [1]: 3.74 µM

Compound: CN(C)c1ccc(/C=N/NC(=O)c2ccncc2)cc1 [N'-(4-DIMETHYLAMINOBENZYLIDENE)ISONICOTINOHYDRAZIDE]
- IC50 [1]: 5.55 µM

Compound: COc1ccc(/C=N/NC(=O)c2ccncc2)cc1
- Activity [1]: Dose-dependent effect
- IC50 [1]: 0.39 µM
- IC50 [2]: > 250 µM

Compound: Sc1nnc(-c2ccncc2)n1-c1ccccc1
- Activity [1]: Dose-dependent effect
- IC50 [1]: 0.16 µM
- IC50 [2]: > 250 µM

Compound: O=C(N/N=C/c1ccccc1)c1ccncc1 [N'-BENZYLIDENE ISONICOTINOHYDRAZIDE]
- IC50 [1]: 3.84 µM

Compound: O=C(N/N=C/c1ccc([N+](=O)[O-])cc1)c1ccncc1 [N'-(4-NITROBENZYLIDENE)ISONICOTINOHYDRAZIDE]
- Activity [1]: Dose-dependent effect
- IC50 [1]: 0.37 µM
- IC50 [2]: > 250 µM

Compound: c1ccc(Nc2nnc(-c3ccncc3)s2)cc1
- IC50 [1]: 4.43 µM
